Data taken from PMC9732253, “Inhibition of the Phosphatidylinositol-3 Kinase Pathway Using Bimiralisib in Loss-of-Function NOTCH1-Mutant Head and Neck Cancer” (The Oncologist, 2022).

Procedure: All patients received 140 mg bimiralisib (PQR309) orally once daily on 2 consecutive days followed by 5 days without treatment weekly until unacceptable toxicity, tumor progression, patient request for withdrawal, investigator judgment, or death.
Radiologic tumor assessments were performed using computed tomography at baseline and every 6 weeks. Safety was continuously monitored.

Nc1cc(C(F)(F)F)c(-c2nc(N3CCOCC3)nc(N3CCOCC3)n2)cn1 [Bimiralisib, 5-(4,6-dimorpholino-1,3,5-triazin-2-yl)-4-(trifluoromethyl)pyridin-2-amine]
General disorders and administration site conditions, Grade 1, total number of events (n = 8): 6
General disorders and administration site conditions, Grade 2, patients (n = 8): 1 (12.5) n (%)
General disorders and administration site conditions, Grade 2, total number of events (n = 8): 1
General disorders and administration site conditions, Grade 3/4, patients (n = 8): 1 (12.5) n (%)
General disorders and administration site conditions, Grade 3/4, total number of events (n = 8): 1
Hemorrhage, Grade 1, patients (n = 8): 0 n (%)
Hemorrhage, Grade 1, total number of events (n = 8): 0
Hemorrhage, Grade 2, patients (n = 8): 0 n (%)
Hemorrhage, Grade 2, total number of events (n = 8): 0
Hemorrhage, Grade 3/4, patients (n = 8): 1 (12.5) n (%)
Hemorrhage, Grade 3/4, total number of events (n = 8): 1
Hyperglycemia, Grade 1, patients (n = 8): 1 (12.5) n (%)
Hyperglycemia, Grade 1, total number of events (n = 8): 1
Hyperglycemia, Grade 2, patients (n = 8): 0 n (%)
Hyperglycemia, Grade 2, total number of events (n = 8): 0
Hyperglycemia, Grade 3/4, patients (n = 8): 2 (25.0) n (%)
Hyperglycemia, Grade 3/4, total number of events (n = 8): 2
Hypocalcemia, Grade 1, patients (n = 8): 0 n (%)
Hypocalcemia, Grade 1, total number of events (n = 8): 0
Hypocalcemia, Grade 2, patients (n = 8): 1 (12.5) n (%)
Hypocalcemia, Grade 2, total number of events (n = 8): 1
Hypocalcemia, Grade 3/4, patients (n = 8): 0 n (%)
Hypocalcemia, Grade 3/4, total number of events (n = 8): 0
Hypotension, Grade 1, patients (n = 8): 1 (12.5) n (%)
Hypotension, Grade 1, total number of events (n = 8): 1
Hypotension, Grade 2, patients (n = 8): 0 n (%)
Hypotension, Grade 2, total number of events (n = 8): 0
Hypotension, Grade 3/4, patients (n = 8): 0 n (%)
Hypotension, Grade 3/4, total number of events (n = 8): 0
Infections and infestations, Grade 3/4, patients (n = 8): 3 (37.5) n (%)
Injury, poisoning and procedural complications, Grade 1, patients (n = 8): 1 (12.5) n (%)
Injury, poisoning and procedural complications, Grade 1, total number of events (n = 8): 1
Injury, poisoning and procedural complications, Grade 2, patients (n = 8): 0 n (%)
Injury, poisoning and procedural complications, Grade 2, total number of events (n = 8): 0
Injury, poisoning and procedural complications, Grade 3/4, patients (n = 8): 0 n (%)
Injury, poisoning and procedural complications, Grade 3/4, total number of events (n = 8): 0
Investigations, Grade 1, patients (n = 8): 3 (37.5) n (%)
Investigations, Grade 1, total number of events (n = 8): 3
Investigations, Grade 2, patients (n = 8): 0 n (%)
Investigations, Grade 2, total number of events (n = 8): 0
Investigations, Grade 3/4, patients (n = 8): 1 (12.5) n (%)
Investigations, Grade 3/4, total number of events (n = 8): 2
Laryngeal stenosis, Grade 1, patients (n = 8): 0 n (%)
Laryngeal stenosis, Grade 1, total number of events (n = 8): 0
Laryngeal stenosis, Grade 2, patients (n = 8): 0 n (%)
Laryngeal stenosis, Grade 2, total number of events (n = 8): 0
Laryngeal stenosis, Grade 3/4, patients (n = 8): 1 (12.5) n (%)
Laryngeal stenosis, Grade 3/4, total number of events (n = 8): 1
Metabolism and nutrition disorders, Grade 1, patients (n = 8): 1 (12.5) n (%)
Metabolism and nutrition disorders, Grade 1, total number of events (n = 8): 1
Metabolism and nutrition disorders, Grade 2, patients (n = 8): 2 (25.0) n (%)
Metabolism and nutrition disorders, Grade 2, total number of events (n = 8): 3
Metabolism and nutrition disorders, Grade 3/4, patients (n = 8): 2 (25.0) n (%)
Metabolism and nutrition disorders, Grade 3/4, total number of events (n = 8): 2
Musculoskeletal and connective tissue disorders, Grade 1, patients (n = 8): 1 (12.5) n (%)
Musculoskeletal and connective tissue disorders, Grade 1, total number of events (n = 8): 2
Musculoskeletal and connective tissue disorders, Grade 2, patients (n = 8): 0 n (%)
Musculoskeletal and connective tissue disorders, Grade 2, total number of events (n = 8): 0
Musculoskeletal and connective tissue disorders, Grade 3/4, patients (n = 8): 0 n (%)
Musculoskeletal and connective tissue disorders, Grade 3/4, total number of events (n = 8): 0
Nausea, Grade 1, patients (n = 8): 1 (12.5) n (%)
Nausea, Grade 1, total number of events (n = 8): 1
Nausea, Grade 2, patients (n = 8): 2 (25.0) n (%)
Nausea, Grade 2, total number of events (n = 8): 2
Nausea, Grade 3/4, patients (n = 8): 0 n (%)
Nausea, Grade 3/4, total number of events (n = 8): 0
Neck pain, Grade 1, patients (n = 8): 1 (12.5) n (%)
Neck pain, Grade 1, total number of events (n = 8): 1
Neck pain, Grade 2, patients (n = 8): 0 n (%)
Neck pain, Grade 2, total number of events (n = 8): 0
Neck pain, Grade 3/4, patients (n = 8): 0 n (%)
Neck pain, Grade 3/4, total number of events (n = 8): 0
Nervous system disorders, Grade 1, patients (n = 8): 1 (12.5) n (%)
Nervous system disorders, Grade 1, total number of events (n = 8): 2
Nervous system disorders, Grade 2, patients (n = 8): 1 (12.5) n (%)
Nervous system disorders, Grade 2, total number of events (n = 8): 1
Nervous system disorders, Grade 3/4, patients (n = 8): 0 n (%)
Nervous system disorders, Grade 3/4, total number of events (n = 8): 0
Osteomyelitis acute, Grade 1, patients (n = 8): 0 n (%)
Osteomyelitis acute, Grade 1, total number of events (n = 8): 0
Osteomyelitis acute, Grade 2, patients (n = 8): 0 n (%)
Osteomyelitis acute, Grade 2, total number of events (n = 8): 0
Osteomyelitis acute, Grade 3/4, patients (n = 8): 1 (12.5) n (%)
Osteomyelitis acute, Grade 3/4, total number of events (n = 8): 1
Pain in jaw, Grade 1, patients (n = 8): 1 (12.5) n (%)
Pain in jaw, Grade 1, total number of events (n = 8): 1
Pain in jaw, Grade 2, patients (n = 8): 0 n (%)
Pain in jaw, Grade 2, total number of events (n = 8): 0
Pain in jaw, Grade 3/4, patients (n = 8): 0 n (%)
Pain in jaw, Grade 3/4, total number of events (n = 8): 0
Platelet count decreased, Grade 1, patients (n = 8): 1 (12.5) n (%)
Platelet count decreased, Grade 1, total number of events (n = 8): 1
Platelet count decreased, Grade 2, patients (n = 8): 0 n (%)
Platelet count decreased, Grade 2, total number of events (n = 8): 0
Platelet count decreased, Grade 3/4, patients (n = 8): 0 n (%)
Platelet count decreased, Grade 3/4, total number of events (n = 8): 0
Pneumonia aspiration, Grade 1, patients (n = 8): 0 n (%)
Pneumonia aspiration, Grade 1, total number of events (n = 8): 0
Pneumonia aspiration, Grade 2, patients (n = 8): 0 n (%)
Pneumonia aspiration, Grade 2, total number of events (n = 8): 0
Pneumonia aspiration, Grade 3/4, patients (n = 8): 2 (25.0) n (%)
Pneumonia aspiration, Grade 3/4, total number of events (n = 8): 2
Presyncope, Grade 1, patients (n = 8): 0 n (%)
Presyncope, Grade 1, total number of events (n = 8): 0
Presyncope, Grade 2, patients (n = 8): 1 (12.5) n (%)
Presyncope, Grade 2, total number of events (n = 8): 1
Presyncope, Grade 3/4, patients (n = 8): 0 n (%)
Presyncope, Grade 3/4, total number of events (n = 8): 0
Pruritus, Grade 1, patients (n = 8): 1 (12.5) n (%)
Pruritus, Grade 1, total number of events (n = 8): 1
Pruritus, Grade 2, patients (n = 8): 0 n (%)
Pruritus, Grade 2, total number of events (n = 8): 0
Pruritus, Grade 3/4, patients (n = 8): 0 n (%)
Pruritus, Grade 3/4, total number of events (n = 8): 0
Psychiatric disorders, Grade 1, patients (n = 8): 2 (25.0) n (%)
Psychiatric disorders, Grade 1, total number of events (n = 8): 2
Psychiatric disorders, Grade 2, patients (n = 8): 0 n (%)
Psychiatric disorders, Grade 2, total number of events (n = 8): 0
Psychiatric disorders, Grade 3/4, patients (n = 8): 0 n (%)
Psychiatric disorders, Grade 3/4, total number of events (n = 8): 0
Pyrexia, Grade 1, patients (n = 8): 1 (12.5) n (%)
Pyrexia, Grade 1, total number of events (n = 8): 1
Pyrexia, Grade 2, patients (n = 8): 0 n (%)
Pyrexia, Grade 2, total number of events (n = 8): 0
Pyrexia, Grade 3/4, patients (n = 8): 0 n (%)
Pyrexia, Grade 3/4, total number of events (n = 8): 0
Rash, Grade 1, patients (n = 8): 2 (25.0) n (%)
Rash, Grade 1, total number of events (n = 8): 2
Rash, Grade 2, patients (n = 8): 0 n (%)
Rash, Grade 2, total number of events (n = 8): 0
Rash, Grade 3/4, patients (n = 8): 0 n (%)
Rash, Grade 3/4, total number of events (n = 8): 0
Renal and urinary disorders, Grade 1, patients (n = 8): 1 (12.5) n (%)
Renal and urinary disorders, Grade 1, total number of events (n = 8): 1
Renal and urinary disorders, Grade 2, patients (n = 8): 0 n (%)
Renal and urinary disorders, Grade 2, total number of events (n = 8): 0
Renal and urinary disorders, Grade 3/4, patients (n = 8): 1 (12.5) n (%)
Renal and urinary disorders, Grade 3/4, total number of events (n = 8): 1
Renal injury, Grade 1, patients (n = 8): 0 n (%)
Renal injury, Grade 1, total number of events (n = 8): 0
Renal injury, Grade 2, patients (n = 8): 0 n (%)
Renal injury, Grade 2, total number of events (n = 8): 0
Renal injury, Grade 3/4, patients (n = 8): 1 (12.5) n (%)
Renal injury, Grade 3/4, total number of events (n = 8): 1
Respiratory, thoracic and mediastinal disorders, Grade 1, patients (n = 8): 1 (12.5) n (%)
Respiratory, thoracic and mediastinal disorders, Grade 1, total number of events (n = 8): 1
Respiratory, thoracic and mediastinal disorders, Grade 2, patients (n = 8): 0 n (%)
Respiratory, thoracic and mediastinal disorders, Grade 2, total number of events (n = 8): 0
Respiratory, thoracic and mediastinal disorders, Grade 3/4, patients (n = 8): 3 (37.5) n (%)
Respiratory, thoracic and mediastinal disorders, Grade 3/4, total number of events (n = 8): 4
Seizure, Grade 1, patients (n = 8): 1 (12.5) n (%)
Seizure, Grade 1, total number of events (n = 8): 1
Seizure, Grade 2, patients (n = 8): 0 n (%)
Seizure, Grade 2, total number of events (n = 8): 0
Seizure, Grade 3/4, patients (n = 8): 0 n (%)
Seizure, Grade 3/4, total number of events (n = 8): 0
Sepsis, Grade 3/4, total number of events (n = 8): 1
Skin and subcutaneous tissue disorders, Grade 1, patients (n = 8): 2 (25.0) n (%)
Skin and subcutaneous tissue disorders, Grade 1, total number of events (n = 8): 4
Skin and subcutaneous tissue disorders, Grade 2, patients (n = 8): 0 n (%)
Skin and subcutaneous tissue disorders, Grade 2, total number of events (n = 8): 0
Skin and subcutaneous tissue disorders, Grade 3/4, patients (n = 8): 0 n (%)
Skin and subcutaneous tissue disorders, Grade 3/4, total number of events (n = 8): 0
Skin infection, Grade 3/4, total number of events (n = 8): 1
Sunburn, Grade 1, patients (n = 8): 1 (12.5) n (%)
Sunburn, Grade 1, total number of events (n = 8): 1
Sunburn, Grade 2, patients (n = 8): 0 n (%)
Sunburn, Grade 2, total number of events (n = 8): 0
Sunburn, Grade 3/4, patients (n = 8): 0 n (%)
Sunburn, Grade 3/4, total number of events (n = 8): 0
Tinnitus, Grade 1, patients (n = 8): 1 (12.5) n (%)
Tinnitus, Grade 1, total number of events (n = 8): 1
Tinnitus, Grade 2, patients (n = 8): 0 n (%)
Tinnitus, Grade 2, total number of events (n = 8): 0
Tinnitus, Grade 3/4, patients (n = 8): 0 n (%)
Tinnitus, Grade 3/4, total number of events (n = 8): 0
Urinary tract discomfort, Grade 1, patients (n = 8): 1 (12.5) n (%)
Urinary tract discomfort, Grade 1, total number of events (n = 8): 1
Urinary tract discomfort, Grade 2, patients (n = 8): 0 n (%)
Urinary tract discomfort, Grade 2, total number of events (n = 8): 0
Urinary tract discomfort, Grade 3/4, patients (n = 8): 0 n (%)
Urinary tract discomfort, Grade 3/4, total number of events (n = 8): 0
Vascular disorders, Grade 1, patients (n = 8): 1 (12.5) n (%)
Vascular disorders, Grade 1, total number of events (n = 8): 1
Vascular disorders, Grade 2, patients (n = 8): 0 n (%)
Vascular disorders, Grade 2, total number of events (n = 8): 0
Vascular disorders, Grade 3/4, patients (n = 8): 1 (12.5) n (%)
Vascular disorders, Grade 3/4, total number of events (n = 8): 1
Vomiting, Grade 1, patients (n = 8): 0 n (%)
Vomiting, Grade 1, total number of events (n = 8): 0
Vomiting, Grade 2, patients (n = 8): 2 (25.0) n (%)
Vomiting, Grade 2, total number of events (n = 8): 2
Vomiting, Grade 3/4, patients (n = 8): 0 n (%)
Vomiting, Grade 3/4, total number of events (n = 8): 0
Wound infection, Grade 3/4, total number of events (n = 8): 0
Patients with at least one treatment-emergent AE (of 8): 8 patients
Nonfatal SAEs not related to bimiralisib (on-treatment period): 10
Time to normalization of grade 3 elevated alanine and aspartate aminotransferase after therapy discontinuation (patient 4, related to treatment): 28 days
